This is an account of results in ChEMBL document CHEMBL5385932, “Highly Concentrated Linear Guanidine Amides from the Marine Sipunculid Phascolosoma granulatum” (J Nat Prod, 2024).

One data set concerns Artemia salina. The data set can be described thus: Toxicity in brine shrimp assessed as lethality at 500 uM measured after 24 to 48 hrs by microscopy. The data set is classed as organism-based. To be noted: in vivo, time 24-48 hrs.
A further data set deals with Candida parapsilosis. The data set can be described thus: Antifungal activity against Candida parapsilosis ATCC22019 assessed as effect on fungal growth at 64 ug/ml. It counts as functional, organism-based. Conditions: dose 64.0 µg/ml.
The test system of another data set is Candida albicans. The data set can be described thus: Antifungal activity against Candida albicans ATCC64124 assessed as effect on fungal growth at 64 ug/ml. Conditions: dose 64.0 µg/ml. The data set is classed as functional, organism-based.
The next data set concerns A549. The data set can be described thus: Cytotoxicity against human A549 cells assessed as effect on cell viability at 20 ug/ml by MTT assay. It counts as functional, cell-based. Conditions: dose 20.0 µg/ml.
The test system of the next data set is Escherichia coli. The data set can be described thus: Antibacterial activity against Escherichia coli ATCC25922 assessed as effect on bacterial growth at 64 ug/ml. The data set is classed as functional, organism-based. Conditions: dose 64.0 µg/ml.
Another data set deals with HepG2. The data set can be described thus: Cytotoxicity against human HepG2 cells assessed as effect on cell viability at 20 ug/ml by MTT assay. It counts as functional, cell-based. To be noted: dose 20.0 µg/ml. (In general: Tetrazolium assays rely on reduction of a dye to a coloured formazan, in cell work by metabolically active cells.)
A further data set relates to A2058. In words: Cytotoxicity against human A2058 cells assessed as effect on cell viability at 20 ug/ml by MTT assay. It counts as functional, cell-based. To be noted: dose 20.0 µg/ml.
The test system of another data set is Nakaseomyces glabratus. In words: Antifungal activity against Candida glabrata ATCC2001 assessed as effect on fungal growth at 64 ug/ml. The data set is classed as functional, organism-based. Conditions: dose 64.0 µg/ml.
A further data set relates to Candida tropicalis. In words: Antifungal activity against Candida tropicalis ATCC750 assessed as effect on fungal growth at 64 ug/ml. The data set is classed as functional, organism-based. Conditions: dose 64.0 µg/ml.
The test system of a further data set is MCF7. The data set can be described thus: Cytotoxicity against human MCF7 cells assessed as effect on cell viability at 20 ug/ml by MTT assay. Conditions: dose 20.0 µg/ml. The data set is classed as functional, cell-based.
For the next data set, the system named is MIA PaCa-2. In words: Cytotoxicity against human MIA PaCa-2 cells assessed as effect on cell viability at 20 ug/ml by MTT assay. The data set is classed as functional, cell-based. To be noted: dose 20.0 µg/ml.
A further data set concerns Pichia kudriavzevii. In words: Antifungal activity against Candida krusei ATCC6258 assessed as effect on fungal growth at 64 ug/ml. It counts as functional, organism-based. To be noted: dose 64.0 µg/ml.
The subject of the next data set is Staphylococcus aureus. The data set can be described thus: Antibacterial activity against methicillin-susceptible Staphylococcus aureus ATCC29213 assessed as effect on bacterial growth at 64 ug/ml. The data set is classed as functional, organism-based. Conditions: dose 64.0 µg/ml.
For a further data set, the system named is Acinetobacter baumannii. The data set can be described thus: Antibacterial activity against Acinetobacter baumannii ATCC19606 assessed as effect on bacterial growth at 64 ug/ml. The data set is classed as functional, organism-based. Conditions: dose 64.0 µg/ml.
For another data set, the system named is Aspergillus fumigatus. In words: Antifungal activity against Aspergillus fumigatus ATCC46645 assessed as effect on fungal growth at 64 ug/ml. To be noted: dose 64.0 µg/ml. The data set is classed as functional, organism-based.

Calls of active or inactive are those of the source. The calls are words filed in the database; no cut-off is given here.

Consider `CC(C)CC[C@@H](C)C(=O)N(C)CCCCNC(=N)N.O=C(O)C(F)(F)F`, for which the Activity result in the data set on Artemia salina was “Non-Toxic”. The outcome in the data set with Candida parapsilosis, in the data set with Candida albicans, in the data set with A549, in the data set with Escherichia coli, with HepG2 and in the data set on A2058 was inactive. Moreover, the outcome with Nakaseomyces glabratus, with Candida tropicalis, in the data set on MCF7, in the data set with MIA PaCa-2, in the data set on Pichia kudriavzevii and in the data set with Staphylococcus aureus was inactive. Besides, the outcome with Acinetobacter baumannii and in the data set with Aspergillus fumigatus was inactive.

Take `CC(C)C[C@H](O)CC/C=C\CNC(=O)CCNC(=N)N.O=C(O)C(F)(F)F`: the Activity entry in the data set on Artemia salina is recorded as “Non-Toxic”. For the same compound, the result in the data set with A549, with HepG2, in the data set on A2058, in the data set on MCF7 and in the data set with MIA PaCa-2 was inactive.

Regarding `CC(C)CC[C@@H](C)C(=O)NCCCNC(=N)N.O=C(O)C(F)(F)F`, the Activity entry in the data set with Artemia salina was “Non-Toxic”. Also, the outcome in the data set on Candida parapsilosis, with Candida albicans, in the data set with A549, with Escherichia coli, in the data set with HepG2 and in the data set on A2058 was inactive. Besides, the result with Nakaseomyces glabratus, in the data set on Candida tropicalis, in the data set on MCF7, with MIA PaCa-2, with Pichia kudriavzevii and in the data set on Staphylococcus aureus was inactive. Further, the result in the data set with Acinetobacter baumannii and in the data set with Aspergillus fumigatus was inactive.

`CC(C)CC(=O)N(C)CCCCNC(=N)N.O=C(O)C(F)(F)F`: the Activity entry in the data set with Artemia salina is “Non-Toxic”. The result in the data set on A549, with HepG2, with A2058, in the data set on MCF7 and in the data set with MIA PaCa-2 was inactive.

For `C/C(=C/CCC(C)C)C(=O)NCCCCNC(=N)N.O=C(O)C(F)(F)F`, in the data set with Artemia salina, the Activity entry was “Non-Toxic”. Moreover, the result in the data set with Candida parapsilosis, in the data set with Candida albicans, in the data set with A549, with Escherichia coli, in the data set on HepG2 and with A2058 was inactive. The result with Nakaseomyces glabratus, in the data set on Candida tropicalis, in the data set on MCF7, in the data set on MIA PaCa-2, in the data set on Pichia kudriavzevii and in the data set on Staphylococcus aureus was inactive. Further, the outcome with Acinetobacter baumannii and in the data set on Aspergillus fumigatus was inactive.

Regarding `CC(C)CC[C@@H](C)C(=O)NCCCCNC(=N)N.O=C(O)C(F)(F)F`, in the data set with Artemia salina, the Activity entry is reported as “Non-Toxic”. The result in the data set on Candida parapsilosis, in the data set with Candida albicans, with A549, in the data set on Escherichia coli, in the data set on HepG2 and with A2058 was inactive. For the same compound, the outcome in the data set on Nakaseomyces glabratus, with Candida tropicalis, with MCF7, in the data set on MIA PaCa-2, with Pichia kudriavzevii and with Staphylococcus aureus was inactive. Also, the result in the data set on Acinetobacter baumannii and with Aspergillus fumigatus was inactive.
